We go through five compounds from patent US20100137397A1, “Chemical Compounds” (ASTRAZENECA AB, priority 2005, published 2010).

pIC50: −log10 of the molar value.

For data set [1] the following is noted: conscious dogs; cited from earlier work.
The subject of a further data set is hepatocytes. To be noted: cited from earlier work.
The conditions of data set [2]: db/db and ob/ob mice; cited from earlier work.
Data set [3] deals with T1, Human recombinant liver glycogen phosphorylase a (hrl GPa) (Homo sapiens, UniProt P06737).
T1 sequence (P06737 1-847): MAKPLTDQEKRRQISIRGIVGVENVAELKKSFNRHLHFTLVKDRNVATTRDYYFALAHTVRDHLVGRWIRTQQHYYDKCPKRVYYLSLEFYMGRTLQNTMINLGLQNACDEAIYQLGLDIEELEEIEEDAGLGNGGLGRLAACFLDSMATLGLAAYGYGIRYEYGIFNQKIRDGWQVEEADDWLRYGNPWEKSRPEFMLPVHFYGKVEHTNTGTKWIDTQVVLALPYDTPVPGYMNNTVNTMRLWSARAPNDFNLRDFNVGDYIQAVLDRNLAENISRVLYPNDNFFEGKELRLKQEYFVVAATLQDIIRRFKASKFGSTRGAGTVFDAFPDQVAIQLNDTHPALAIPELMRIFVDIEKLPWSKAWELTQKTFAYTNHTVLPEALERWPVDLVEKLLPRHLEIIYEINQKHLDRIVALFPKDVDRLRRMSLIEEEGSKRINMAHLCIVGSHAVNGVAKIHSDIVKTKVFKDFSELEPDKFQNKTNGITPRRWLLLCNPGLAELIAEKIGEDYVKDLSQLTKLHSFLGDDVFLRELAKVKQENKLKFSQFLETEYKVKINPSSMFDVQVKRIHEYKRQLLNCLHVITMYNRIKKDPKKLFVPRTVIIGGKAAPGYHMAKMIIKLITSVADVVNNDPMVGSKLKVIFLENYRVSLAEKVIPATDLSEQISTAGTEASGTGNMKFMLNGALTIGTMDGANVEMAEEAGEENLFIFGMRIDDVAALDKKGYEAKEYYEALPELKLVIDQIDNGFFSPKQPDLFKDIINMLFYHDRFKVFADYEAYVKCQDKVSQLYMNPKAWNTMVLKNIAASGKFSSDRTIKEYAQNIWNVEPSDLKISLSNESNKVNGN
The data set is described as follows: glycogen phosphorylase a multienzyme coupled assay. The class given is biochemical. To be noted: hrl GPa 20 nM, 8 mM glucose, pH7.2, 6 hours at 30° C. The protocol: The activity of the compounds is determined by measuring the inhibitory effect of the compounds on glycogen degradation, the production of glucose-1-phosphate from glycogen is monitored by the multienzyme coupled assay, as described in EP 0 846 464 A2, general method of Pesce et al (Pesce, M A, Bodourian, S H, Harris, R C, and Nicholson, J F (1977) Clinical Chemistry 23, […]). The reactions were in 384well microplate format in a volume of 50 μl. The change in fluorescence due to the conversion of the co-factor NAD to NADH is measured at 340 nm excitation, 465 nm emission in a Tecan Ultra Multifunctional Microplate Reader. The reaction is in 50 mM HEPES, 3.5 mM KH2PO4, 2.5 mM MgCl2, 2.5 mM ethylene glycol-bis(b-aminoethyl ether) N,N,N′,N′-tetraacetic acid, 100 mM KCl, 8 mM D-(+)-glucose pH7.2, containing 0.5 mM dithiothreitol, the assay buffer solution. Human recombinant liver glycogen phosphorylase a (hrl GPa) 20 nM is pre-incubated in assay buffer solution with 6.25 mM NAD, 1.25 mg type III glycogen at 1.25 mg m^−1 the reagent buffer, for 30 minutes. […] The non-inhibited activity of GPa is measured in the presence of 10 μl 5% DMSO in assay buffer solution and maximum inhibition measured in the presence of 5 mgs ml^−1 N-ethylmaleimide. […] Relative Fluoresence Units (RFUs) are measured at 340 nm excitation, 465 nm emission. […]
Activity is calculated as follows:—

Take `CCN1C(C)=C(C(=O)OC(C)C)C(c2ccccc2Cl)C2=C1COC2=O` (stereo not shown) [Bay R 3401]: the “hepatic glucose output and arterial plasma glucose following a glucagon challenge” value in data set [1] is “reduced significantly”.

Consider `CN(C)C(=O)[C@H](O)[C@H](Cc1ccccc1)NC(=O)c1cc2cc(Cl)ccc2[nH]1` [CP91149], for which, in the data set on hepatocytes, the “glucagon stimulated glycogenolysis and glucose output in hepatocytes” value is listed as “reduce”. Further, the plasma glucose concentration result in data set [2] was “reduced, in a dose related manner”.

For `O=C(N[C@@H](Cc1ccc(F)cc1)C(=O)N1CCC(O)CC1)c1cc2cc(Cl)ccc2[nH]1` [CP320626], the “glucagon stimulated glycogenolysis and glucose output in hepatocytes” value in the data set on hepatocytes is on record as “reduce”. Also, in data set [2], the plasma glucose concentration entry is reported as “reduced, in a dose related manner”.

On to `O=C(O)COC[C@@H]1c2ccccc2C[C@H]1NC(=O)c1cc2cc(Cl)sc2[nH]1` [Example 1, [((1R,2R)-2-{[(2-Chloro-6H-thieno[2,3-b]pyrrol-5-yl)carbonyl}amino]-2,3-dihydro-1H-inden-1-yl)methoxy]acetic acid], for which the negative logarithm of the IC50 (pIC50) (in general, the negative decadic logarithm of the IC50, by convention in mol/L) in data set [3] was 6.72.

On to `O=C(O)C[C@@H]1c2ccccc2C[C@H]1NC(=O)c1cc2sc(Cl)c(Cl)c2[nH]1` [Example 8, ((1R,2R)-2-{[(2,3-Dichloro-4H-thieno[3,2-b]pyrrol-5-yl)carbonyl]amino}-2,3-dihydro-1H-inden-1-yl)acetic acid], for which the pIC50 in data set [3] is 7.85.
